Measurements taken from patent publication EP0292365A2, “4-Amino-5,8-quinazolindione derivatives, process for their preparation and pharmaceutical compositions containing them” (CENTRE NATIONAL DE LA RECHERCHE SCIENTIFIQUE, priority 1987, dated 1988).

Experiments:
[1] = tested on: Mélanome B16; type: in vivo, souris BDF1
Source text: Afin de tester l'activité antitumorale des composés décrits plus haut, on a utilisé les leucémies murines P388 et L1210, ainsi que le mélanome murin B16. La leucémie P388 est considère comme très sensible et permet une première sélection. D'autre part, une substance ayant une grande activité sur la leucémie L1210 a une grande chance d'être active en clinique humaine (J.M. Venditti; Relevance of transplantable animal tumor systems to the Selection of new agents for clinical trial in pharmacological basis of cancer chemotherapy. The University of Texas ed. Williams and Wilkins, publ. 1975, Baltimore USA).
Cette étude a été réalisée sur 1, 2 ou 3 tumeurs murines expérimentales selon le schéma suivant :
Les produits en solution dans l'eau ou en suspension dans du Klucel sont administrés par voie intrapéritonéale 24 heures après la greffe des cellules tumorales (10 animaux par série), soit en injection unique (J1), soit pendant 9 jours consécutifs (Ji-9). Les morts sont relevés chaque jour à la même heure. La comparaison du temps médian de survie des souris témoins (C) et des souris traitées (T) permet d'apprécier l'activité antitumorale du produit. On adopte comme critère d'activité minimale la valeur de T/C supérieure ou égale à 125 % conformément aux critères établis par GERAN et par l'O.M.S. (Réf. GERAN R.I., GREENBERG N.H., MACDONALD M.M., SCHUMACHER A.M. and ABBOTT B.J. Protocols for screening chemical agents and natural products against animal tumors and other biological systems. Cancer Chemother. Rep. Part 3, 3, 1-103 (1972)).
Lorsque le composé est actif sur plusieurs tumeurs, son administration par d'autres voies que la voie intrapéritonéale (i.p.) est envisagée : orale (p.o) et intraveineuse (i.v). Les résultats des essais effectués à l'aide du composé 63 sont rassemblés dans le tableau IV ci-après.
Dans les tableaux IV et IV Bis, P représentent la variation de poids entre J1 et J5 des animaux traités; lorsque P est supérieure à environ 4 g, cela signifie que la dose à laquelle le composé a été testé est toxique.

[2] = tested on: lignée HBL; assay: Effect on cell cycle phases (cell kinetics parameters), HBL line; type: cell-based, humaine; conditions: for G2±M / GO-G1 / S / G2+M / G1-GO: HBL
Method: Les cellules tumorales en croissance exponentielle sont ensemencées (10.000 cellules/ml) dans des boîtes à Petri contenant au fond de la boîte un couvre-objet (18 x 18 mm) et 3 ml de MEM (MEM = milieu essentiel minimum) + 5 % FCS (FCS = serum de veau fetal) (v/v). […] Trois couvre-objets sont fixés pour chaque condition expérimentale : éthanol 95° (75 v), formol neutre à 40 % (20 v), acide acétique (5 v), pendant 10 minutes. Les cellules témoins cultivées dans le milieu expérimental sans le produit à tester sont fixées au même moment. A la fin de la fixation, les couvre-objets sont retournés et montés sur des lames histologiques à l'aide de produit commercialisé sous la marque DPX par la Société British Drug House et conservés à l'abri de la lumière et à 4° en attendant d'être colorés.
Les lames avec les couvre-objets sont colorées par une réaction de Feulgen modifiée. Toutes les lames d'une condition expérimentale sont conditionnées par le réactif de Feulgen en même temps, pendant une heure, après hydrolyse dans un milieu HCI 6N pendant une heure à 20° C. Les préparations cellulaires sont ensuite conservées à l'abri de la lumière et à 4°C en attendant l'analyse.
Grâce à un système d'analyse microscopique à balayage automatique, on détermine l'effet de la drogue sur la croissance cellulaire, au cours du temps, sur deux lignées cellulaires tumorales d'origine humaine : la lignée MCF-7 d'origine mammaire et la lignée HBL (mélanome malin).
On a représenté sur le tableau D BIS les résultats relatifs aux effets du composé 63 au cours du temps sur les différentes phases du cycle cellulaire (lignée HBL) où il est possible d'observer le nombre de cellules survivant à chaque phase du cycle cellulaire.
Dans les tableaux, GO-G1, S et G2 + M correspondent à des différentes phases de multiplication des cellules, telles qu'elles sont définies dans "Cell proliferation kinetics of MCF-7 human mammary carcinome cells in culture and effects of tamoxifen on exponentially growing and plateau - phase cells" R.L. Sutherland, R.E. Hall and I.W. Taylor, Cancer Research 43, pp. 3998 à 4006, 1983.

[3] = B16, greffe ip(susp. au 1/10), ip J1-9, dose optimale 0,2 mg/kg/inj.

CN(C)CCCNc1ncnc2c1C(=O)C(N1CC1)=C(N1CC1)C2=O [composé 63]
survivants 60 jours [1, 3]: 2
Δ P J1-J5 [1, 3]: 0 g
T/C ([1]; B16, greffe ip(susp. au 1/10), ip J1-9, dose optimale 0,2 mg/kg/inj., survivants inclus): 192%
Doses actives (T/C ≥ 125 %) ([1]; B16, greffe ip(susp. au 1/10), traitement ip J1-9): 0,05-0,8 mg/kg/inj.
activité sur le mélanome B16 ([1]; summary): très efficace
G2±M ([2]; F (10µg/ml), 1 jour): 14.0 ± 0.1 ns
GO-G1 ([2]; F (10µg/ml), 1 jour): 62.7 ± 2.0 ns
S ([2]; F (10µg/ml), 1 jour): 23.3 ± 2.0 ns
G2+M ([2]; F (10µg/ml), 2 jours): 13.3 ± 2.2 ns
GO-G1 ([2]; F (10µg/ml), 2 jours): 58.7 ± 0.9
S ([2]; F (10µg/ml), 2 jours): 28.0 ± 2.1
G2+M ([2]; F (10µg/ml), 3 jours): 12.3 ± 0.7 ns
GO-G1 ([2]; F (10µg/ml), 3 jours): 59.7 ± 0.9
S ([2]; F (10µg/ml), 3 jours): 28.0 ± 1.0
G1-GO ([2]; F (10µg/ml), 4 jours): 59.0 ± 1.5 ns
G2+M ([2]; F (10µg/ml), 4 jours): 12.3 ± 1.9 ns
S ([2]; F (10µg/ml), 4 jours): 28.7 ± 0.7 ns
G2±M ([2]; M (1µg/ml), 1 jour): 12.7 ± 1.5 ns
GO-G1 ([2]; M (1µg/ml), 1 jour): 62.3 ± 1.9 ns
S ([2]; M (1µg/ml), 1 jour): 25.0 ± 3.6 ns
G2+M ([2]; M (1µg/ml), 2 jours): 13.7 ± 1.2 ns
GO-G1 ([2]; M (1µg/ml), 2 jours): 58.3 ± 1.3
S ([2]; M (1µg/ml), 2 jours): 28.0 ± 1.0
G2+M ([2]; M (1µg/ml), 3 jours): 15.3 ± 1.3 ns
GO-G1 ([2]; M (1µg/ml), 3 jours): 56.7 ± 1.8
S ([2]; M (1µg/ml), 3 jours): 28.0 ± 3.1
G1-GO ([2]; M (1µg/ml), 4 jours): 58.0 ± 0.6 ns
G2+M ([2]; M (1µg/ml), 4 jours): 16.0 ± 2.1
S ([2]; M (1µg/ml), 4 jours): 26.0 ± 1.7 ns
G2±M ([2]; f (0.1µg/ml), 1 jour): 12.7 ± 1.2 ns
GO-G1 ([2]; f (0.1µg/ml), 1 jour): 56.0 ± 1.5
S ([2]; f (0.1µg/ml), 1 jour): 31.3 ± 2.6
G2+M ([2]; f (0.1µg/ml), 2 jours): 10.3 ± 2.2 ns
GO-G1 ([2]; f (0.1µg/ml), 2 jours): 53.0 ± 1.5
S ([2]; f (0.1µg/ml), 2 jours): 36.7 ± 3.7
G2+M ([2]; f (0.1µg/ml), 3 jours): 11.0 ± 0.6 ns
GO-G1 ([2]; f (0.1µg/ml), 3 jours): 53.7 ± 1.3
S ([2]; f (0.1µg/ml), 3 jours): 35.3 ± 0.9
G1-GO ([2]; f (0.1µg/ml), 4 jours): 53.3 ± 1.2
G2+M ([2]; f (0.1µg/ml), 4 jours): 14.0 ± 2.3 ns
S ([2]; f (0.1µg/ml), 4 jours): 32.7 ± 3.5 ns
effet sur le cycle cellulaire (HBL) ([2]; summary of tableau D BIS): bloque les cellules en phase S
